Source: patent publication EP0162413A2, “Polyamine for use as a medicine in the treatment of neoplasms” (MERRELL DOW PHARMACEUTICALS INC., priority 1984, dated 1985)

Experiments:
L1210 Leukemia [1] = test: Survival of mice with L1210 leukemia (norspermidine, DFMO); assay type: in vivo; conditions: Norspermidine i.p. 50 mg/kg/day day 1 to 7; DFMO 2% solution in drinking water (approximately 3 g/kg)
Protocol: (§1) 1 x 10^5 L1210 leukemic cells per animal were innoculated i.p. on day 0 and drug treatments were started on day 1. DFMO was administered as 2% solution in drinking water (approximately 3 g/kg based on fluid intake). Norspermidine was administered i.p. at 50 mg/kg/day from day 1 to 7. Polyamine concentrations were determined on cells collected from treated and control animals on day 4. ND: not detectable; [formula]

L1210 Leukemia [2] = test: Polyamine levels of L1210 leukemia cells collected from treated mice; assay type: in vivo; conditions: L1210 cells collected on day 4; Norspermidine i.p. 50 mg/kg/day; DFMO 2% in drinking water
Protocol: as §1

Lewis Lung Tumor (3LL) = test: Growth of Lewis lung tumor (3LL) in mice (DFMO, norspermidine); assay type: in vivo; conditions: 3LL s.c.; Norspermidine i.p. 50 mg/kg/day day 1 to 14; DFMO 2% in drinking water; tumors weighed at end of 18 days
Protocol: 1 x 10^5 3LL cells per animal were injected s.c. in the intrascapular region of the mice on day 0. Drug treatments were started on day 1. DFMO was administered as a 2% solution in drinking water (approximately 3 g/kg based on fluid intake). Norspermidine was administered i.p. 50 mg/kg/day from day 1 to 14. At the end of 18 days, animals were sacrificed, tumors disected and weighed.

B16 Melanoma [3] = test: Survival of B16 melanoma bearing mice (DFMO, norspermidine); assay type: in vivo; conditions: B16 i.p.; Norspermidine i.p. 50 mg/kg/day day 1 to 7; DFMO 2% in drinking water
Protocol: 1 x 10^5 B16 melanoma cells per animal were injected i.p. on day 0. Drug treatments were started on day 1. DFMO was administered as a 2% solution in drinking water (approximately 3 g/kg based on fluid intake). Norspermidine was administered i.p. at 50 mg/kg/day starting day 1 to 7. [formula]

[4] = tested on: Human Cervical Cancer (HeLa); test: Growth of HeLa cells in culture (N,N'-bis(3-aminopropyl)-1,8-octanediamine); assay type: cell-based; conditions: 72 hours, 37°C
Protocol: (§2) HeLa cells and B16 melanoma cells were plated at a density of 1 x 10^5/plate (35 mm) and incubated overnight. Different concentrations of the compound in regular medium --were added and cell growth was determined after 72 hours of incubation at 37°C.

[5] = tested on: Mouse Melanoma (B16) Cells; test: Growth of B16 melanoma cells in culture (N,N'-bis(3-aminopropyl)-1,8-octanediamine); assay type: cell-based; conditions: 72 hours, 37°C
Protocol: as §2

L1210 Leukemia [6] = test: Antitumor activity against L1210 leukemia in mice, survival (N,N'-bis(3-aminopropyl)-1,8-octanediamine); assay type: in vivo
Protocol: Treatment Survival (Days) % T/C Control 7.5 ^± 0.5 Compound 25 mg/kg^* 16.0 ^± 1.5 213.3 6.26 mg/kg^** 27 ^± 3.0 360.0 1 x 10^5 L1210 leukemic cells/animal were inoculated i.p. on day 0 and drug treatments were started as follows: * N,N'-bis(3-aminopropyl)-1,8-octanediamine was administered i.p. at 25 mg/Kg/day. from day 1-7. ^** The compound was administered i.p. at 6.25 mg/kg 4 times a day, every three hours starting at 8:30 a.m. to 5:30 p.m. from days 3-7. [formula]

B16 Melanoma [7] = test: Antitumor activity against B16 melanoma in mice, tumor weight; assay type: in vivo; conditions: day 1-10, tumor cells s.c., sacrificed on day 15
Protocol: (§3) 1 x 10^5 tumor cells/animal were inoculated s.c. on day 0 and the drug treatments were started on day 1. "N,N'-bis (3-aminopropyl)-1, 8-octanediamine was administered at different doses from day 1-10. The animals were sacrificed on day 15 and the tumors were dissected and weighed.

Lewis Lung Carcinoma = test: Antitumor activity against Lewis lung carcinoma in mice, tumor weight; assay type: in vivo; conditions: day 1-10, tumor cells s.c., sacrificed on day 15
Protocol: as §3

HeLa Cells [8] = test: Growth and mitotic index of HeLa cells in culture (norspermidine); assay type: cell-based, Human; conditions: 72 hours, 37°C
HeLa Cells [9] = test: Polyamine levels of HeLa cells in culture (norspermidine); assay type: cell-based, Human

In the case of `NCCC[C@](N)(C(=O)O)C(F)F` [DFMO, α-difluoromethyl ornithine, reference compound], the “% T/C” value (L1210 Leukemia [1]) is reported as 107%, the “Survival” value (L1210 Leukemia [1]) is reported as 8.0 days and the “Polyamine Concentration Putrescine” value (L1210 Leukemia [2]) is reported as 0.015 n·moles/10^6 cells. The “Polyamine Concentration Spermidine” value (L1210 Leukemia [2]) was 0.84 n·moles/10^6 cells, the “Polyamine Concentration Spermine” value (L1210 Leukemia [2]) was 1.18 n·moles/10^6 cells and the “% Inhibition” value (Lewis Lung Tumor (3LL)) was 4%. The “Tumor Weight (gr)” value (Lewis Lung Tumor (3LL)) was 4.92 gr, the “% T/C” value (B16 Melanoma [3]) was 129% and the “Survival” value (B16 Melanoma [3]) was 17.5 days.

For `NCCCNCCCCCCCCNCCCN` [N,N'-bis(3-aminopropyl)-1,8-octanediamine], the “HeLa Cells Cell No. x 10^5” value ([4]; 0.001 mM) was 7.56 x 10^5, the “HeLa Cells Cell No. x 10^5” value ([4]; 0.01 mM) was 5.9 x 10^5 and the “HeLa Cells Cell No. x 10^5” value ([4]; 0.1 mM) was 4.56 x 10^5. For the same compound, the “HeLa Cells Cell No. x 10^5” value ([4]; 1.0 mM) was 2.82 x 10^5, the inhibition at 1 µM ([4]; Homo sapiens, HeLa, 0.001 mM, read-out: HeLa Cells % Inh. of Cell Growth) was 39% and the inhibition at 10 µM ([4]; Homo sapiens, HeLa, 0.01 mM, read-out: HeLa Cells % Inh. of Cell Growth) was 50%. The inhibition at 100 µM ([4]; Homo sapiens, HeLa, 0.1 mM, read-out: HeLa Cells % Inh. of Cell Growth) was 62%, the inhibition at 1000 µM ([4]; Homo sapiens, HeLa, 1.0 mM, read-out: HeLa Cells % Inh. of Cell Growth) was 76% and the “B16 Melanoma Cell No. x 10^6” value ([5]; 0.001 mM) was 14.5 x 10^6. For the same compound, the “B16 Melanoma Cell No. x 10^6” value ([5]; 0.01 mM) was 7.40 x 10^6, the “B16 Melanoma Cell No. x 10^6” value ([5]; 0.1 mM) was 7.42 x 10^6 and the “B16 Melanoma Cell No. x 10^6” value ([5]; 1.0 mM) was 0 x 10^6. It also gave an inhibition at 1 µM ([5]; Mus musculus, B16, 0.001 mM, read-out: B16 Melanoma % Inh. of Cell Growth) of 16%, an inhibition at 10 µM ([5]; Mus musculus, B16, 0.01 mM, read-out: B16 Melanoma % Inh. of Cell Growth) of 57% and an inhibition at 100 µM ([5]; Mus musculus, B16, 0.1 mM, read-out: B16 Melanoma % Inh. of Cell Growth) of 57%. For the same compound, the inhibition at 1000 µM ([5]; Mus musculus, B16, 1.0 mM, read-out: B16 Melanoma % Inh. of Cell Growth) was 100%, the “% T/C” value (L1210 Leukemia [6]; 6.26 mg/kg (footnote: i.p. at 6.25 mg/kg 4 times a day, every three hours, days 3-7)) was 360.0% and the “% T/C” value (L1210 Leukemia [6]; 25 mg/kg: i.p. at 25 mg/Kg/day from day 1-7) was 213.3%. For the same compound, the “B16 Melanoma % Inh.” value (B16 Melanoma [7]; 6.25 mg/kg) was 66%, the “B16 Melanoma Tumor Weight (gms)” value (B16 Melanoma [7]; 6.25 mg/kg) was 1.68 ± 0.37 gms and the “B16 Melanoma % Inh.” value (B16 Melanoma [7]; 12.5 mg/kg) was 81%. For the same compound, the “B16 Melanoma Tumor Weight (gms)” value (B16 Melanoma [7]; 12.5 mg/kg) was 0.95 ± 0.29 gms, the “Lewis Lung Carcinoma % Inh.” value (Lewis Lung Carcinoma; 6.25 mg/kg) was 37% and the “Lewis Lung Carcinoma Tumor Weight (gms)” value (Lewis Lung Carcinoma; 6.25 mg/kg) was 3.10 ± 0.39 gms. For the same compound, the “Lewis Lung Carcinoma % Inh.” value (Lewis Lung Carcinoma; 12.5 mg/kg) was 61% and the “Lewis Lung Carcinoma Tumor Weight (gms)” value (Lewis Lung Carcinoma; 12.5 mg/kg) was 1.94 ± 0.24 gms.

`NCCCNCCCN` [Norspermidine, norspermidine] was tested, and the “Cell No. x 10^6” value (HeLa Cells [8]; 0.005 mM) was 0.70 x 10^6, the “Mitotic Index” value (HeLa Cells [8]; 0.005 mM) was 74.0 and the “Cell No. x 10^6” value (HeLa Cells [8]; 0.05 mM) was 0.64 x 10^6. For the same compound, the “Mitotic Index” value (HeLa Cells [8]; 0.05 mM) was 76.7, the “Cell No. x 10^6” value (HeLa Cells [8]; 0.5 mM) was 0.70 x 10^6 and the “Mitotic Index” value (HeLa Cells [8]; 0.5 mM) was 71.0. It also gave an inhibition at 5 µM (HeLa Cells [8]; Homo sapiens, HeLa, 0.005 mM, read-out: % Inhibition of Cell Growth) of 61%, an inhibition at 50 µM (HeLa Cells [8]; Homo sapiens, HeLa, 0.05 mM, read-out: % Inhibition of Cell Growth) of 65% and an inhibition at 500 µM (HeLa Cells [8]; Homo sapiens, HeLa, 0.5 mM, read-out: % Inhibition of Cell Growth) of 61%. The “Polyamine Concentration Norspermidine” value (HeLa Cells [9]; 0.005 mM) was 5.31 n·moles/10^6 cells, the “Polyamine Concentration Putriscine” value (HeLa Cells [9]; 0.005 mM) was 0.026 n·moles/10^6 cells and the “Polyamine Concentration Spermidine” value (HeLa Cells [9]; 0.005 mM) was 0.849 n·moles/10^6 cells. For the same compound, the “Polyamine Concentration Spermine” value (HeLa Cells [9]; 0.005 mM) was 0.637 n·moles/10^6 cells, the “Polyamine Concentration Norspermidine” value (HeLa Cells [9]; 0.05 mM) was 4.30 n·moles/10^6 cells and the “Polyamine Concentration Spermidine” value (HeLa Cells [9]; 0.05 mM) was 0.433 n·moles/10^6 cells. For the same compound, the “Polyamine Concentration Spermine” value (HeLa Cells [9]; 0.05 mM) was 0.452 n·moles/10^6 cells, the “Polyamine Concentration Norspermidine” value (HeLa Cells [9]; 0.5 mM) was 6.32 n·moles/10^6 cells and the “Polyamine Concentration Spermidine” value (HeLa Cells [9]; 0.5 mM) was 0.481 n·moles/10^6 cells. The “Polyamine Concentration Spermine” value (HeLa Cells [9]; 0.5 mM) was 0.441 n·moles/10^6 cells, the “% T/C” value (L1210 Leukemia [1]) was 147% and the “Survival” value (L1210 Leukemia [1]) was 11.0 days. For the same compound, the “Polyamine Concentration Spermidine” value (L1210 Leukemia [2]) was 0.69 n·moles/10^6 cells, the “Polyamine Concentration Spermine” value (L1210 Leukemia [2]) was 0.77 n·moles/10^6 cells and the “% Inhibition” value (Lewis Lung Tumor (3LL)) was 32%. The “Tumor Weight (gr)” value (Lewis Lung Tumor (3LL)) was 3.50 gr, the “% T/C” value (B16 Melanoma [3]) was 133% and the “Survival” value (B16 Melanoma [3]) was 18.0 days.
